What was measured:
Assay type in all cases: functional
Escherichia coli [1] = test: Compound was evaluated for zone of stimulation of growth in Escherichia coli RWB18 at a concentration of 25 nM
Escherichia coli [2] = test: Compound was evaluated for zone of stimulation of growth in Escherichia coli RW193 at concentration of 25 nM
Escherichia coli [3] = test: Compound was evaluated for zone of stimulation of growth in Escherichia coli RW193 at concentration of 5 nM
Escherichia coli [4] = test: Compound was evaluated for zone of stimulation of growth in Escherichia coli RWB18 at a concentration of 5 nM
Escherichia coli [5] = test: Compound was evaluated for zone of stimulation of growth in Escherichia coli X580 at concentration of 25 nM
Escherichia coli [6] = test: Compound was evaluated for zone of stimulation of growth in Escherichia coli X580 at concentration of 5 nM

Row | Structure (SMILES) | Zone of stimulation (Escherichia coli [1]) [mm] | Zone of stimulation (Escherichia coli [2]) [mm] | Zone of stimulation (Escherichia coli [3]) [mm] | Zone of stimulation (Escherichia coli [4]) [mm] | Zone of stimulation (Escherichia coli [5]) [mm] | Zone of stimulation (Escherichia coli [6]) [mm]
1 | O=C(O)CCC(=O)N(CCCCNC(=O)c1cccc(O)c1O)CCCNC(=O)c1cccc(O)c1O | 24 | – | – | – | – | –
2 | O=C(CCC(=O)N(CCCCNC(=O)c1cccc(O)c1O)CCCNC(=O)c1cccc(O)c1O)NCCCC[C@H](NC(=O)c1cccc(O)c1O)C(=O)O (stereo in doubt) | 24 | 28 | 22 | 16 | 22 | –
3 | O=C(CCC(=O)N(CCCCNC(=O)c1cccc(O)c1O)CCCNC(=O)c1cccc(O)c1O)NCCCC[C@H](NC(=O)c1cccc(O)c1O)C(=O)N[C@@H]1C(=O)N2C(C(=O)O)=C(Cl)CC[C@H]12 (stereo in doubt) | 20 | – | 12 | 12 | 12 | –
4 | O=C(CCC(=O)N(CCCCNC(=O)c1cccc(O)c1O)CCCNC(=O)c1cccc(O)c1O)NCCCC[C@H](NC(=O)c1cccc(O)c1O)C(=O)O (stereo in doubt; 7) | – | 24 | – | 24 | 20 | –
5 | O=C(CCC(=O)N(CCCCNC(=O)c1cccc(O)c1O)CCCNC(=O)c1cccc(O)c1O)NCCCC[C@H](NC(=O)c1cccc(O)c1O)C(=O)N[C@@H]1C(=O)N2C(C(=O)O)=C(Cl)CC[C@H]12 (stereo in doubt; 8) | 16 | 18 | – | 10 | 0 | –
6 | O=C(N[C@H]1COC(=O)[C@@H](NC(=O)c2cccc(O)c2O)COC(=O)[C@@H](NC(=O)c2cccc(O)c2O)COC1=O)c1cccc(O)c1O (stereo in doubt; form 1) [ENTEROBACTIN] | – | – | – | – | 38 | 24
7 | O=C(N[C@H]1COC(=O)[C@@H](NC(=O)c2cccc(O)c2O)COC(=O)[C@@H](NC(=O)c2cccc(O)c2O)COC1=O)c1cccc(O)c1O (stereo in doubt; form 2) [ENTEROBACTIN] | – | – | – | – | 40 | 30

Source: ChEMBL document CHEMBL1125950, “Synthesis, siderophore, and antimicrobial evaluation of a spermidine-based tricatecholate siderophore and carbacephalosporin conjugate” (1991)
